Experimental data as given in US8242118B2, “Arylsulfonamide derivatives for use as CCR3 antagonists in the treatment of inflammatory and immunological disorders” (Axikin Pharmaceuticals Inc., priority 2001, dated 2012).
Structures can show the parent of a compound that is named as a salt.

What was measured:
Human CCR3 [1] = molecular target: T1, Human CCR3 (Homo sapiens, UniProt P51677); assay: Receptor binding assay (RBA), [125I]-eotaxin; settings: human CCR3-transformed K562 cells, 0.1 nM [125I]-eotaxin; compounds of about 40 to 90% purity; read-out: Activity grade RBA (IC50 class)
T1 construct: The cloned CCR3 cDNA was constructed with pcDNA3 vector and transfected into a IC562 cell line; expressed in transfected cells
T1 sequence (P51677 1-355): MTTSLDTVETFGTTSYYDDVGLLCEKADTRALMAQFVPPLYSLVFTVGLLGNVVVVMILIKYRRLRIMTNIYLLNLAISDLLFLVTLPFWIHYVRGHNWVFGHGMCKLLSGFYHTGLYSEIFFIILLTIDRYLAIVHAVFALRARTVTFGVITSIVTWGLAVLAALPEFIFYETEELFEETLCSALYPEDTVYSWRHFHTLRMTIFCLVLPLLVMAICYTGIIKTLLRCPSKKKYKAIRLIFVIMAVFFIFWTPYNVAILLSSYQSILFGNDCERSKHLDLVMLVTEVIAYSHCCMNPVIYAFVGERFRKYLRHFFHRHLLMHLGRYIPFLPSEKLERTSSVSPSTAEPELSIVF
Description: [Determination of IC50 Values of Compounds in Receptor Binding Assay]
• Human CCR3-transformed K562 cells were used. The cloned CCR3 cDNA was constructed with pcDNA3 vector and transfected into a IC562 cell line. The human CCR3-transformed K562 cells were maintained in RPMI-1640 (Cat.#22400-089, Life Technologies) supplemented with 10% FCS (Cat.#A-1115-L, Hyclone), 55 μM 2-mercaptoethanol (Cat.#21985-023, Life Technologies), 1 mM sodium pyruvate (Cat.#11360-070, Life Technologies), 100 units/ml of penicillin G and 100 μg/ml of streptomycin (Cat.#15140-122, Life Technologies), and 0.4 mg/ml of Geneticin (Cat.#10131-035, Life Technologies)(hereinafter called “culture medium”). Before the receptor binding assay, cells were pretreated with 5 mM sodium butyrate (Cat.#193-01522, Wako)-containing the culture medium (2×10^5 cells/ml) for 20-24 hours to increase the expression of CCR3. (2) Receptor Binding Assay (RBA) • Butyrate-pretreated cells, suspended in binding buffer (25 mM HEPES pH 7.6, 1 mM CaCl2, 5 mM MgCl2, 0.5% BSA, 0.1% NaN3) at a cell density of 2×10^6 cells/ml, were added into 60 μl/well in the 96-well round bottom polypropylene plate (Cat.#3365, Costar). Compounds, diluted with the binding buffer (4-times higher concentration of the final concentration), were added into 30 μl/well in the polypropylene plate. [^125I]-labeled human eotaxin (Cat.#IM290, Amersham Pharmacia Biotech), diluted with the binding buffer at the concentration of 0.4 nM (final concentration; 0.1 nM), was added into 30 μl/well in the polypropylene plate. Total 120 μl/well of binding reaction mixture (60 μl/well of cell suspension, 30 μl/well of compound solution, and 30 μl/well of [^125I]-labeled eotaxin) were incubated in the polypropylene plate for 1 hour at room temperature after the incubation, 100 μl/well of the reaction mixture was transferred to a filtration plate (Cat.#MAFB-N0B, Millipore), and washed with the washing buffer (25 mM HEPES pH 7.6, 1 mM CaCl2, 5 mM MgCl2, 0.5% BSA, 0.1% NaN3, 0.5 M NaCl) twice. The 96-well filtration plate was pretreated with 100 μl/well of 0.5% polyethylenimine (Cat.#P-3143, Sigma) for 2-4 hours at room temperature and washed with the washing buffer twice before use. The non-specific binding was determined by parallel incubation in the presence of 500 nM of non-labeled eotaxin (Cat.#23209, Genzyme Techne). The radioactivities remained on the filter were measured by liquid scintillation counter (TopCount™, Packard) after an addition of 45 μl/well of scintillant (Microscint20, Cat.#6013621, Packard). The inhibition percent at each concentration of compound was calculated, and IC50 values were determined from the inhibition curve. [Determination of IC50 Values of Compounds in Calcium Mobilization Assay] (IC50 Ca2+) (1) Cell • Human CCR3-transformed K562 cells were used. The human CCR3-transformed K562 cells were maintained in RPMI-1640 supplemented with 10% FCS, 55 μM 2-mercaptoethanol (Cat.#21985-023, Life Technologies), 1 mM sodium pyruvate, 100 units/ml of penicillin G and 100 μg/ml of streptomycin and 0.4 mg/ml of Geneticin. Before the calcium mobilization assay, cells were pretreated with 5 mM sodium butyrate-containing the culture medium (2×10^5 cells/ml) for 20-24 hours to increase the expression of CCR3. (2) Calcium Mobilization Assay • Butyrate-pretreated cells were loaded with Fluo-3AM (Cat.#F-1242, Molecular Probes) in loading buffer (Hanks' solution Cat.#05906 Nissui, 20 mM HEPES pH 7.6, 0.1% BSA, 1 mM probenecid Cat.#P-8761 Sigma, 1 μM Fluo-3AM, 0.01% pluronic F-127 Cat.#P-6866 Molecular Probes) at a cell density of 1×10^7 cells/ml. Then, cells were washed with calcium assay buffer (Hanks' solution Cat.#05906 Nissui, 20 mM HEPES pH 7.6, 0.1% BSA, 1 mM Probenecid Cat.#P-8761 Sigma). The cell suspension (3.3×10^6 cells/ml) was added into 60 μl/well in the 96-well clear bottom black plate (Cat.#3904, Costar). […]

Human CCR3 [2] = molecular target: T1, Human CCR3; assay: Calcium mobilization assay, eotaxin-stimulated; format: cell-based; settings: human CCR3-transformed K562 cells, 10 nM eotaxin; compounds of about 40 to 90% purity; read-out: Activity grade Ca2+ (IC50 class)
Description: • Human CCR3-transformed K562 cells were used. The cloned CCR3 cDNA was constructed with pcDNA3 vector and transfected into a IC562 cell line. The human CCR3-transformed K562 cells were maintained in RPMI-1640 (Cat.#22400-089, Life Technologies) supplemented with 10% FCS (Cat.#A-1115-L, Hyclone), 55 μM 2-mercaptoethanol (Cat.#21985-023, Life Technologies), 1 mM sodium pyruvate (Cat.#11360-070, Life Technologies), 100 units/ml of penicillin G and 100 μg/ml of streptomycin (Cat.#15140-122, Life Technologies), and 0.4 mg/ml of Geneticin (Cat.#10131-035, Life Technologies)(hereinafter called “culture medium”). Before the receptor binding assay, cells were pretreated with 5 mM sodium butyrate (Cat.#193-01522, Wako)-containing the culture medium (2×10^5 cells/ml) for 20-24 hours to increase the expression of CCR3. (2) Receptor Binding Assay (RBA) • Butyrate-pretreated cells, suspended in binding buffer (25 mM HEPES pH 7.6, 1 mM CaCl2, 5 mM MgCl2, 0.5% BSA, 0.1% NaN3) at a cell density of 2×10^6 cells/ml, were added into 60 μl/well in the 96-well round bottom polypropylene plate (Cat.#3365, Costar). Compounds, diluted with the binding buffer (4-times higher concentration of the final concentration), were added into 30 μl/well in the polypropylene plate. [^125I]-labeled human eotaxin (Cat.#IM290, Amersham Pharmacia Biotech), diluted with the binding buffer at the concentration of 0.4 nM (final concentration; 0.1 nM), was added into 30 μl/well in the polypropylene plate. Total 120 μl/well of binding reaction mixture (60 μl/well of cell suspension, 30 μl/well of compound solution, and 30 μl/well of [^125I]-labeled eotaxin) were incubated in the polypropylene plate for 1 hour at room temperature after the incubation, 100 μl/well of the reaction mixture was transferred to a filtration plate (Cat.#MAFB-N0B, Millipore), and washed with the washing buffer (25 mM HEPES pH 7.6, 1 mM CaCl2, 5 mM MgCl2, 0.5% BSA, 0.1% NaN3, 0.5 M NaCl) twice. The 96-well filtration plate was pretreated with 100 μl/well of 0.5% polyethylenimine (Cat.#P-3143, Sigma) for 2-4 hours at room temperature and washed with the washing buffer twice before use. The non-specific binding was determined by parallel incubation in the presence of 500 nM of non-labeled eotaxin (Cat.#23209, Genzyme Techne). The radioactivities remained on the filter were measured by liquid scintillation counter (TopCount™, Packard) after an addition of 45 μl/well of scintillant (Microscint20, Cat.#6013621, Packard). The inhibition percent at each concentration of compound was calculated, and IC50 values were determined from the inhibition curve. [Determination of IC50 Values of Compounds in Calcium Mobilization Assay] (IC50 Ca2+) (1) Cell • Human CCR3-transformed K562 cells were used. The human CCR3-transformed K562 cells were maintained in RPMI-1640 supplemented with 10% FCS, 55 μM 2-mercaptoethanol (Cat.#21985-023, Life Technologies), 1 mM sodium pyruvate, 100 units/ml of penicillin G and 100 μg/ml of streptomycin and 0.4 mg/ml of Geneticin. Before the calcium mobilization assay, cells were pretreated with 5 mM sodium butyrate-containing the culture medium (2×10^5 cells/ml) for 20-24 hours to increase the expression of CCR3. (2) Calcium Mobilization Assay • Butyrate-pretreated cells were loaded with Fluo-3AM (Cat.#F-1242, Molecular Probes) in loading buffer (Hanks' solution Cat.#05906 Nissui, 20 mM HEPES pH 7.6, 0.1% BSA, 1 mM probenecid Cat.#P-8761 Sigma, 1 μM Fluo-3AM, 0.01% pluronic F-127 Cat.#P-6866 Molecular Probes) at a cell density of 1×10^7 cells/ml. Then, cells were washed with calcium assay buffer (Hanks' solution Cat.#05906 Nissui, 20 mM HEPES pH 7.6, 0.1% BSA, 1 mM Probenecid Cat.#P-8761 Sigma). The cell suspension (3.3×10^6 cells/ml) was added into 60 μl/well in the 96-well clear bottom black plate (Cat.#3904, Costar). Compounds, diluted (5-times concentration of the final concentration) with the calcium assay buffer, were added into 20 μl/well in the plate 10 minutes before assay. […]

| Compound | IC50 (Human CCR3 [1]) [µM] | melting point [°C] | IC50 (Human CCR3 [2]) [nM] |
| --- | --- | --- | --- |
| O=[N+]([O-])c1ccc(Oc2ccccc2F)c(S(=O)(=O)N2CCNCC2)c1 [Example 1-14] | 1 to 10 | 118 to 120 |  |
| Cl.O=[N+]([O-])c1ccc(Oc2cccc(F)c2)c(S(=O)(=O)N2CCNCC2)c1 [Example 1-15] | 1 to 10 | 227 to 229 |  |
| Cc1ccc(Oc2ccc([N+](=O)[O-])cc2S(=O)(=O)N2CCNCC2)cc1.Cl [Example 1-16] | > 10 | 188 to 192 |  |
| Cc1cccc(Oc2ccc([N+](=O)[O-])cc2S(=O)(=O)N2CCNCC2)c1.Cl [Example 1-17] | < 1 | 242 to 244 |  |
| O=[N+]([O-])c1ccc(Oc2cccc(Cl)c2Cl)c(S(=O)(=O)N2CCNCC2)c1 [Example 1-82] | 1 to 10 | 173 to 174 |  |
| O=[N+]([O-])c1ccc(Oc2ccc(Cl)c(Cl)c2)c(S(=O)(=O)N2CCNCC2)c1 [Example 1-83] | > 10 | 167 to 168 |  |
| Cc1cc(C)cc(Nc2ccc([N+](=O)[O-])cc2S(=O)(=O)N2CCNCC2)c1 [Example 3-1, N-(3,5-dimethyl-phenyl)-4-nitro-2-(1-piperazinylsulfonyl)aniline dihydrochloride] | < 1 |  |  |
| Cc1cc(C)cc(Oc2ccc([N+](=O)[O-])cc2S(=O)(=O)N2CCN(Cc3ccccc3)CC2)c1 [Example 4-9] | > 10 | 123 to 124 |  |
| Cc1cc(C)cc(Oc2ccc([N+](=O)[O-])cc2S(=O)(=O)N2CCN(C=O)CC2)c1 [Example 4-10] | > 10 | 210 to 212 |  |
| Cc1cc(C)cc(Oc2ccc([N+](=O)[O-])cc2S(=O)(=O)N2CCC(N3CCCC3)CC2)c1 [Example 4-11] | < 1 | 156 to 158 |  |
| CN(C)c1ccc(NS(=O)(=O)c2cc([N+](=O)[O-])ccc2Oc2cc(Cl)cc(Cl)c2)cc1 [Example 4-25] | 1 to 10 | 226 |  |
| CN(C)CC(C)(C)CNS(=O)(=O)c1cc([N+](=O)[O-])ccc1Oc1cc(Cl)cc(Cl)c1 [Example 4-35] |  | 134 | < 1000 |
| CCOC(=O)CCN1CCN(S(=O)(=O)c2cc([N+](=O)[O-])ccc2Oc2cc(Cl)cc(Cl)c2)CC1 [Example 4-37] |  | 160 to 162 | < 1000 |
| Cc1cc(C)cc(Oc2cc(C)c(Cl)cc2S(=O)(=O)N2CCNCC2)c1.Cl [Example 5-8] |  | 148 | < 1000 |
| N#Cc1ccc(Oc2cc(Cl)cc(Cl)c2)c(S(=O)(=O)N2CCC[C@H]2CN2CCCC2)c1 [Example 13-3] |  | 144 to 145 | < 1000 |
| CN(c1cccnc1)S(=O)(=O)c1cc(C#N)ccc1Oc1cc(Cl)cc(Cl)c1.Cl [Example 13-10] |  | 104 | < 1000 |
| CSCCCN1CCN(S(=O)(=O)c2cc(C#N)ccc2Sc2cc(Cl)cc(Cl)c2)CC1 [Example 17-2] |  | 124 | < 1000 |
| CN(C)CC(C)(C)CN(C)S(=O)(=O)c1cc([N+](=O)[O-])ccc1Sc1cc(Cl)cc(Cl)c1 [Example 26-3] |  | 144 to 145 | < 1000 |
